{"source": "patent US11179348B2", "about": "“Combination comprising pterostilbene for the treatment of cancer” (FUNDACIÓN UNIVERSIDAD CATÓLICA DE VALENCIA SAN VICENTE …, priority 2015, dated 2021)", "assay_type_in_all_cases": "cell-based, human", "key": {"A2058 melanoma cell line": {"system": "A2058 melanoma cell line", "assay": "Effect of anti-melanoma chemotherapy on viability (IC50) of in vitro growing A2058", "experimental": "(§1) Human A2058, MeWo and MelJuso melanoma cells, and mouse AtT-20 pituitary corticotroph tumor cells were from the American Type Culture Collection (ATCC). Human HEMa-LP epidermal melanocytes were from Life Technologies (Grand Island, N.Y.). […] Cells were grown in Dulbecco's modified Eagle's medium (DMEM) (Invitrogen, San Diego, Calif.), pH 7.4, supplemented with 10% heat-inactivated FCS (Biochrom KG, Berlin, Germany), 100 units/ml penicillin and 100 μg/ml streptomycin. Cells were plated, at a density of 20,000 cells/cm2, and cultured at 37° C. in a humidified atmosphere with 5% CO2. […] Cell numbers were determined using a Coulter Counter (Coulter Electronic Inc., Miami, Fla.). Cells were allowed to attach for 12 h before any treatment addition."}, "MeWo melanoma cell line": {"system": "MeWo melanoma cell line", "assay": "Effect of anti-melanoma chemotherapy on viability (IC50) of in vitro growing MeWo", "experimental": "as §1"}, "[1]": {"system": "MelJuso melanoma cell line", "assay": "Effect of anti-melanoma chemotherapy on viability (IC50) of in vitro growing MelJuso", "experimental": "as §1"}}, "note": "Read-outs that look alike come from different tables or passages of the source."}
{"molecule": "O=NN(CCCl)C(=O)NCCCl", "note": "[BCNU, Carmustine]", "values": [{"measurement": "IC50", "setting": "A2058 melanoma cell line; Homo sapiens", "value": "> 100", "unit": "µM"}, {"measurement": "IC50", "setting": "MeWo melanoma cell line; Homo sapiens", "value": "> 100", "unit": "µM"}, {"measurement": "IC50", "setting": "[1]; Homo sapiens, MEL-JUSO", "value": "0.17 ± 0.06", "unit": "µM"}]}
{"molecule": "N.N.[Cl][Pt][Cl]", "note": "[Cisplatin]", "values": [{"measurement": "IC50", "setting": "A2058 melanoma cell line", "value": "> 100", "unit": "µM"}, {"measurement": "IC50", "setting": "MeWo melanoma cell line", "value": "44.3 ± 5.43", "unit": "µM"}, {"measurement": "IC50", "setting": "[1]", "value": "11.2 ± 1.77", "unit": "µM"}]}
{"molecule": "CN(C)/N=N/c1[nH]cnc1C(N)=O", "note": "[Dacarbazine]", "values": [{"measurement": "IC50", "setting": "A2058 melanoma cell line; Homo sapiens", "value": "> 100", "unit": "µM"}, {"measurement": "IC50", "setting": "MeWo melanoma cell line; Homo sapiens", "value": "> 100", "unit": "µM"}, {"measurement": "IC50", "setting": "[1]; Homo sapiens, MEL-JUSO", "value": "56.7 ± 7.46", "unit": "µM"}]}
{"molecule": "COc1cccc2c1C(=O)c1c(O)c3c(c(O)c1C2=O)C[C@@](O)(C(C)=O)C[C@@H]3O[C@H]1C[C@H](N)[C@H](O)[C@H](C)O1", "note": "[Daunorubicin]", "values": [{"measurement": "IC50", "setting": "A2058 melanoma cell line; Homo sapiens", "value": "2.4 ± 0.73", "unit": "µM"}, {"measurement": "IC50", "setting": "MeWo melanoma cell line; Homo sapiens", "value": "2.61 ± 0.51", "unit": "µM"}, {"measurement": "IC50", "setting": "[1]; Homo sapiens, MEL-JUSO", "value": "1.44 ± 0.35", "unit": "µM"}]}
{"molecule": "CN(Cc1cnc2nc(N)nc(N)c2n1)c1ccc(C(=O)N[C@@H](CCC(=O)O)C(=O)O)cc1", "note": "[Methotrexate]", "values": [{"measurement": "IC50", "setting": "A2058 melanoma cell line; Homo sapiens", "value": "> 100", "unit": "µM"}, {"measurement": "IC50", "setting": "MeWo melanoma cell line; Homo sapiens", "value": "> 100", "unit": "µM"}, {"measurement": "IC50", "setting": "[1]; Homo sapiens, MEL-JUSO", "value": "1.35 ± 0.34", "unit": "µM"}]}
{"molecule": "CC(=O)O[C@H]1C(=O)[C@@]2(C)[C@H]([C@H](OC(=O)c3ccccc3)[C@]3(O)C[C@H](OC(=O)[C@H](O)[C@@H](NC(=O)c4ccccc4)c4ccccc4)C(C)=C1C3(C)C)[C@]1(OC(C)=O)CO[C@@H]1C[C@@H]2O", "note": "[Paclitaxel, (2α,4α,5β,7β,10β,13α)-4,10-Bis(acetyloxy)-13-{[(2R,3S)-3-(benzoylamino)-2-hydroxy-3-phenylpropanoyl]oxy}-1,7-dihydroxy-9-oxo-5,20-epoxytax-11-en-2-yl benzoate]", "values": [{"measurement": "IC50", "setting": "A2058 melanoma cell line; Homo sapiens", "value": "0.35 ± 0.1", "unit": "µM"}, {"measurement": "IC50", "setting": "MeWo melanoma cell line; Homo sapiens", "value": "11.1 ± 2.15", "unit": "µM"}, {"measurement": "IC50", "setting": "[1]; Homo sapiens, MEL-JUSO", "value": "0.13 ± 0.03", "unit": "µM"}]}
{"molecule": "Cn1nnc2c(C(N)=O)ncn2c1=O", "note": "[Temozolomide]", "values": [{"measurement": "IC50", "setting": "A2058 melanoma cell line; Homo sapiens", "value": "> 100", "unit": "µM"}, {"measurement": "IC50", "setting": "MeWo melanoma cell line; Homo sapiens", "value": "> 100", "unit": "µM"}, {"measurement": "IC50", "setting": "[1]; Homo sapiens, MEL-JUSO", "value": "> 100", "unit": "µM"}]}
{"molecule": "CCCC(CCC)C(=O)O", "note": "[Valproic acid]", "values": [{"measurement": "IC50", "setting": "A2058 melanoma cell line; Homo sapiens", "value": "> 100", "unit": "µM"}, {"measurement": "IC50", "setting": "MeWo melanoma cell line; Homo sapiens", "value": "> 100", "unit": "µM"}, {"measurement": "IC50", "setting": "[1]; Homo sapiens, MEL-JUSO", "value": "66.2 ± 6.39", "unit": "µM"}]}
{"molecule": "CC[C@]1(O)C[C@@H]2CN(CCc3c([nH]c4ccccc34)[C@@](C(=O)OC)(c3cc4c(cc3OC)N(C)[C@H]3[C@@](O)(C(=O)OC)[C@H](OC(C)=O)[C@]5(CC)C=CCN6CC[C@]43[C@@H]65)C2)C1", "note": "[Vinblastine]", "values": [{"measurement": "IC50", "setting": "A2058 melanoma cell line; Homo sapiens", "value": "7.65 ± 1.35", "unit": "µM"}, {"measurement": "IC50", "setting": "MeWo melanoma cell line; Homo sapiens", "value": "14.5 ± 2.17", "unit": "µM"}, {"measurement": "IC50", "setting": "[1]; Homo sapiens, MEL-JUSO", "value": "0.19 ± 0.04", "unit": "µM"}]}
{"molecule": "CC[C@]1(O)C[C@H]2CN(CCc3c([nH]c4ccccc34)[C@@](C(=O)OC)(c3cc4c(cc3OC)N(C=O)[C@H]3[C@@](O)(C(=O)OC)[C@H](OC(C)=O)[C@]5(CC)C=CCN6CC[C@]43[C@@H]65)C2)C1", "note": "[Vincristine]", "values": [{"measurement": "IC50", "setting": "A2058 melanoma cell line; Homo sapiens", "value": "6.19 ± 2.06", "unit": "µM"}, {"measurement": "IC50", "setting": "MeWo melanoma cell line; Homo sapiens", "value": "12.5 ± 3.04", "unit": "µM"}, {"measurement": "IC50", "setting": "[1]; Homo sapiens, MEL-JUSO", "value": "0.15 ± 0.02", "unit": "µM"}]}
{"molecule": "Arsenate", "values": [{"measurement": "IC50", "setting": "A2058 melanoma cell line", "value": "> 100", "unit": "µM"}, {"measurement": "IC50", "setting": "MeWo melanoma cell line", "value": "94.4 ± 12.4", "unit": "µM"}, {"measurement": "IC50", "setting": "[1]", "value": "65.5 ± 5.19", "unit": "µM"}]}
